Results: ChEMBL document CHEMBL1142737, “Organometallic anticancer agents: cellular uptake and cytotoxicity studies on thiol derivatives of the antitumor agent molybdocene dichloride” (J Med Chem, 2005)

Columns and labels:
[1] = Cytotoxicity against V79 chinese hamster lung cells was determined via MTT assay after 72 hr; assay type: cell-based, Cricetulus griseus
[2] = Cytotoxicity against V79 chinese hamster lung cells was determined via MTT assay after 24 hr; assay type: cell-based, Cricetulus griseus
[3] = […] lethal dose in CF1 mice bearing fluid Ehrlich Ascites tumor at a dose of 75-100 mg/kg; assay type: ADME, organism-based; details: mouse, in vivo
[4] = Ability to inhibit the growth of ovarian cell line 2008; assay type: cell-based, Homo sapiens
[5] = Ability to inhibit the growth of human breast line MCF-7

Sequence: MOLYBDOCENE DICHLORIDE
- IC50 [1]: 350 µM
- IC50 [2]: 820 µM
- LD50 [3]: 175 mg/kg
- IC50 [4]: 700 µM
- IC50 [5]: 620 µM
